In US11007273B2, “Prochelators as targeted prodrugs for prostate cancer and methods of making and using same” (Duke University, priority 2017, dated 2021):
Entries after “also recorded” stand apart in the source; their conditions may differ. Read-outs that look alike come from different tables or passages of the source.

Experiments:
PWR-1E cells [1] = experiment: Glu-DTC cleavage in cell culture, PWR-1E; type: cell-based, human; conditions: GGT(−), 100 μM, 24 h
Procedure: (§1) Glu-DTC cleavage in cell culture: 22Rv1 and PWR-1E cell lines were plated into a 24 well plate (2×10^5 cells/well) with their respective growth media and allowed to adhere overnight. The following day, the growth media was removed, and each cell line was washed with PBS. 2 mL of 100 μM Glu-DTC in serum free media along with 1 mM Gly-Gly was added to the cells. One batch of 22Rv1 were treated with 2 mM Acivicin, a GGT inhibitor, along with Glu-DTC and Gly-Gly. 100 μL aliquots were taken at various time points over 72 h. Each aliquot was analyzed via HPLC to generate chromatographs of the progress of Glu-DTC digestion. Caffeine was added as reference and the ratio of Glu-DTC peak area with respect to caffeine was plotted as percentage considering initial Glu-DTC level as 100%.

22Rv1 cells [2] = experiment: cells; type: cell-based, human; conditions: for IC50: Homo sapiens, 22Rv1, 1 μM CuSO4
Procedure: (§2) Antiproliferation assay: To determine the amount of Cu(II) required for cell studies a checkerboard assay was performed by varying the prodrug or drug concentration and Cu(II) concentration. 22RV1, LNCaP, PC3, MCF-7, and PWR-1E (5,000 cells/well) were seeded in 96-well plates with regular media (22Rv1, LNCaP, and PC-3 in RPMI with 10% FBS; MCF-7 in DMEM with 10% FBS; PWR-1E in Keratinocyte-SFM) and let adhere for 24 h. The following day, the media was replaced with serum free media and cells were treated as indicated for an additional 24 h or 72 h. Cell proliferation was measured using a fluorometric resazurin reduction method. 20 μL of 700 μM Resazurin (Sigma R7017) was added in each well and incubated at 37° C. for 2 h. Fluorescence at 580 nm was measured by exciting at 555 nm with a plate reader. Each experiment was performed in triplicate, and the experiments were repeated three times. Viability vs drug concentration plot from a representative experiment are shown with standard deviation from the experiment as error bar. The error bar in IC50 values represents standard deviation from three different experiments.

PC-3 cells = experiment: cells; type: cell-based, human; conditions: Homo sapiens, PC-3
Procedure: as §2

PWR-1E cells [3] = experiment: cells; type: cell-based, human; conditions: PWR-1E, PWR-1E; for IC50: 1 μM CuSO4, read-out: IC50 with 1 μM CuSO4
Procedure: as §2

LNCaP cells = experiment: cells; type: cell-based, human; conditions: Homo sapiens, LNCaP, LNCaP
Procedure: as §2

MCF-7 cells = experiment: cells; type: cell-based, human; conditions: Homo sapiens, MCF7, MCF-7, 1 μM CuSO4, read-out: IC50 with 1 μM CuSO4
Procedure: as §2

GGT [4] = target: T1, GGT (Homo sapiens, UniProt P19440); experiment: Copper-calcein competition assay with GGT exposure; type: biochemical; conditions: 20 U/L GGT, 1 mM Gly-Gly, 12.5 μM, 37° C.
Procedure: Plots at different timepoint of GGT exposure in accordance with one embodiment of the present disclosure. […] Solutions contained 1 μM CuSO4, 1 μM calcein, 20 U/L of GGT enzyme, and 12.5 μM of either Glu-DTC (grey) or DTC (black) in PBS buffer pH 7.4 with 1 mM Gly-Gly; 37° C.
Calcein assay: In a 96-well plate 12.5 μM prodrug or DTC chelator was dissolved in PBS (pH=7.4) from a 20 mM stock solution in DMSO. To each well Calcein (Cu) was added to reach a final concentration of 1 μM. The fluorescence of calcein was measured using a plate reader with λex=485 nm and λem=535 nm. After measuring the initial fluorescence, Gly-Gly and GGT were added in each well to make up to a final concentration of 1 mM and 20 U/L respectively. The plate was scanned at various time points to observe prodrug turnover via the development of a fluorescent signal caused by Cu removal from Calcein. The fluorescence emission was plotted as percentage with fluorescence of 1 μM Calcein in PBS as 100% and 1 μM (Cu)Calcein as 0%. The experiment was repeated in triplicate and standard deviations are represented as error bars.

22Rv1 cells [5] = experiment: Glu-DTC cleavage in cell culture, 22Rv1; type: cell-based, human; conditions: 100 μM
Procedure: as §1

GGT [6] = target: T1, GGT; experiment: Competition experiments vs. γE-pNA for GGT; type: biochemical; conditions: vs E-pNA; PBS, pH 7.4, 1 mM GlyGly
Procedure: Competition experiments vs. γE-pNA for GGT: To perform the inhibition study, a serial dilution of γE-pNA was performed ranging from 1 mM to 3 μM in PBS with 1 mM Gly-Gly (dilution factor=0.5; pH 7.4; 10% DMSO; 100 μL) using a clear, flat bottom 96 well plate. GGT binding molecules, as indicated, were added to separate sets of triplicate wells to reach a final concentration of 10 and 100 μM. Before the addition of enzyme, the plate was cooled to 4° C. for 15 min. To initiate the assay, 10 μL of 50 U/L GGT was added to each well and an initial absorbance scan was performed. Subsequent scans were performed every 10 min for ˜2 h. In between each scan, the plates were stored at 37° C. in a humidified incubator to reduce solvent evaporation. The experiment was repeated in triplicate.
To probe the reactivity of Glu-DTC in comparison to the enzyme's natural substrate GSH, competition experiments were conducted against the colorimetric substrate L-glutamic acid γ-(p-nitroanilide) [E-pNA]. The colorimetric assay involves monitoring p-nitroaniline release by absorbance at 405 nm upon reaction of the probe substrate E-pNA with GGT in the presence of an inhibiting substrate, either Glu-DTC (FIG. 15A) or GSH (FIG. 15C).

T1 sequence (P19440 whole entry, species assumed): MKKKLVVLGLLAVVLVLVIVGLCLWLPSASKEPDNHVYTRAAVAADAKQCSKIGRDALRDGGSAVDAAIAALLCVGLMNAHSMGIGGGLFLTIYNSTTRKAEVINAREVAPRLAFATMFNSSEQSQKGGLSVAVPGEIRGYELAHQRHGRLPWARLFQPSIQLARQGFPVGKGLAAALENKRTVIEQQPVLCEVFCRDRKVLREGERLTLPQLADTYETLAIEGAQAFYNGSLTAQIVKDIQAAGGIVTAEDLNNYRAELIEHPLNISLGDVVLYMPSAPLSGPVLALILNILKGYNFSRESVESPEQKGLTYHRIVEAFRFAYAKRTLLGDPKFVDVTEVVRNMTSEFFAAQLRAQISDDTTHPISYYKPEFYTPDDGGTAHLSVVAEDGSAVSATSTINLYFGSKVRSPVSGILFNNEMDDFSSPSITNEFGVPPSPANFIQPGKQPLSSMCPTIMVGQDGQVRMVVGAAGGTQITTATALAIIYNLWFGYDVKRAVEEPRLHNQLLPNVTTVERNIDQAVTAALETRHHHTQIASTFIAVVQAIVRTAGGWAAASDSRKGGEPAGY

## CCN(CC)C(=S)SCc1ccc(NC(=O)CC[C@H](N)C(=O)O)cc1 [Glu-DTC]
PWR-1E cells [1]
  level of intact Glu-DTC in supernatant: unchanged
22Rv1 cells [2]; 24 h, read-out: IC50
  IC50: 800 nM
22Rv1 cells [2]; 24 h, read-out: IC50 with 1 μM CuSO4
  IC50: 760 ± 90 nM
22Rv1 cells [2]; 72 h, read-out: IC50 with 1 μM CuSO4
  IC50: 290 ± 110 nM
22Rv1 cells [2]; 72 h continuous exposure, read-out: IC50
  IC50: 300 nM
22Rv1 cells [2]; checkerboard pilot studies in 22Rv1 cells
  Cu(II) added to the growth medium required for antiproliferative activity: 300 nM
PC-3 cells; initial experiments, PC3, 24 h, above maximum tested 10 μM, obtained by extrapolation of the curve (FIG. 10A), read-out: IC50
  IC50: ~12000 nM
PC-3 cells; 24 h, 1 μM CuSO4, read-out: IC50 with 1 μM CuSO4
  IC50: 5500 ± 100 nM
PC-3 cells; 72 h, 1 μM CuSO4, read-out: IC50 with 1 μM CuSO4
  IC50: 1320 ± 250 nM
PWR-1E cells [3]; Homo sapiens, 24 h, 24 h
  IC50: > 15000 nM
PWR-1E cells [3]; Homo sapiens, 72 h, 72 h
  IC50: 1500 nM
PWR-1E cells [3]; 24 h
  IC50: 16800 ± 4400 nM
PWR-1E cells [3]; 72 h
  IC50: 1550 ± 20 nM
PWR-1E cells [3]; initial experiments, within the tested concentration of 10 μM
  toxicity: did not show much toxicity
LNCaP cells; 24 h, 24 h, 1 μM CuSO4, read-out: IC50
  IC50: 800 nM
LNCaP cells; 24 h, 24 h, 1 μM CuSO4, read-out: IC50 with 1 μM CuSO4
  IC50: 620 ± 40 nM
LNCaP cells; 24 h, initial experiments, after 24 h, 1 μM supplemental Cu(II), read-out: IC50
  IC50: 760 nM
LNCaP cells; 72 h, 72 h, 1 μM CuSO4, read-out: IC50 with 1 μM CuSO4
  IC50: 500 ± 90 nM
MCF-7 cells; 24 h
  IC50: 1700 ± 100 nM
MCF-7 cells; 72 h
  IC50: 480 ± 40 nM
GGT [4]
  calcein fluorescence after exposure to GGT enzyme: recovery of calcein fluorescence over time
22Rv1 cells [5]; 22Rv1, 24 h, 1 mM GlyGly
  level of intact Glu-DTC in supernatant: significant loss of detectable Glu-DTC; also recorded: depletion was observed
22Rv1 cells [5]; 22Rv1, co-exposure with Acivicin
  stability time with GGT inhibitor Acivicin: at least 24 h
22Rv1 cells [5]; 22Rv1 treated with GGT-inhibitor Acivicin, 24 h
  level of intact Glu-DTC in supernatant with Acivicin: unchanged
GGT [6]
  Ki: 23000 ± 5000 nM
